# Results reported in US20080145313A1, “Compositions and Methods for the Treatment and Prevention of Neoplastic Disorders” (Genesis Research & Development Corporation Limited, priority 2006, published 2008).
# Marks after values point to notes of the source that are not given here.
# System: A549 cells
# Test: Growth inhibition of siRNA-transfected A549 cells, SYBR Green I DNA content
# Format: cell-based, human
# Settings: for growth inhibition, A549 cells: standardized against control siRNA; for Growth Inhibition in A549 cells by 10 nM siRNA: transporter gene targets
# Procedure, shortened: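 Growth read-out: cellular DNA quantified with SYBR Green I (485/535 nm) 96 h after transfection, cells frozen, thawed and lysed in PBS/1% Triton X-100, pH 7. Cells (A549, 5×10^3 cells/cm^2) received 10 nM siRNA by RNAiMAX; non-specific siRNA served as control; triplicate wells averaged.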
# [1] = 10 nM siRNA, DNA content 96 hours after transfection
substance,measurement,setting,value
SEQ ID NO: 4985: siRNA targeting YBX1 (chain 1 CAGCCTAGAGAGGACGGCAATGAAG; chain 2 CAGCCUAGAGAGGACGGCAAUGAAG; chemistry not given here; one strand in two spellings),"growth inhibition, A549 cells",5 nM siRNA,+** (At least 20% inhibition)
SEQ ID NO: 4984: siRNA targeting YBX1 (chain 1 CAAGGTAGACCAGTGAGGCAGAATA; chain 2 CAAGGUAGACCAGUGAGGCAGAAUA; chemistry not given here; one strand in two spellings),"growth inhibition, A549 cells",5 nM siRNA,++** (At least 50% inhibition)
SEQ ID NO: 4983: siRNA targeting YBX1 (chain 1 TACTGTGGTCGACGCCCATAGGGTC; chain 2 UACUGUGGUCGACGCCCAUAGGGUC; chemistry not given here; one strand in two spellings),"growth inhibition, A549 cells",10 nM siRNA,+ (At least 20% inhibition)
SEQ ID NO: 4982: siRNA targeting YBX1 (chain 1 TTTGCTGGTAATTGCGTGGAGGACC; chain 2 UUUGCUGGUAAUUGCGUGGAGGACC; chemistry not given here; one strand in two spellings),"growth inhibition, A549 cells",10 nM siRNA,+++ (At least 70% inhibition)
SEQ ID NO: 4932: siRNA targeting SLC29A1 (ENT1) (chain 1 TGATAAAGTAGCCGAAGGCACTTTC; chain 2 UGAUAAAGUAGCCGAAGGCACUUUC; chemistry not given here; one strand in two spellings),Growth Inhibition in A549 cells by 10 nM siRNA,[1],− (no growth inhibition)
SEQ ID NO: 4924: siRNA targeting SLC16A1 (MCT1) (chain 1 TTAGACTTATCTTTCCCTGCCTTGG; chain 2 UUAGACUUAUCUUUCCCUGCCUUGG; chemistry not given here; one strand in two spellings),Growth Inhibition in A549 cells by 10 nM siRNA,[1],++ (inhibits by at least 75%)
"SEQ ID NO: 5307: Stealth siRNA targeting RRM2 (chain 1 AATTCATCCCAATGAGCTTCACAGG; chain 2 AAUUCAUCCCAAUGAGCUUCACAGG; Stealth siRNA, chemical pattern not given here; one strand in two spellings)",Growth Inhibition in A549 cells,[1],++ (inhibits by at least 75%)
